For series [1], the target named is T1, Human GR (Homo sapiens, UniProt P00390).
T1 sequence (P00390 44-522): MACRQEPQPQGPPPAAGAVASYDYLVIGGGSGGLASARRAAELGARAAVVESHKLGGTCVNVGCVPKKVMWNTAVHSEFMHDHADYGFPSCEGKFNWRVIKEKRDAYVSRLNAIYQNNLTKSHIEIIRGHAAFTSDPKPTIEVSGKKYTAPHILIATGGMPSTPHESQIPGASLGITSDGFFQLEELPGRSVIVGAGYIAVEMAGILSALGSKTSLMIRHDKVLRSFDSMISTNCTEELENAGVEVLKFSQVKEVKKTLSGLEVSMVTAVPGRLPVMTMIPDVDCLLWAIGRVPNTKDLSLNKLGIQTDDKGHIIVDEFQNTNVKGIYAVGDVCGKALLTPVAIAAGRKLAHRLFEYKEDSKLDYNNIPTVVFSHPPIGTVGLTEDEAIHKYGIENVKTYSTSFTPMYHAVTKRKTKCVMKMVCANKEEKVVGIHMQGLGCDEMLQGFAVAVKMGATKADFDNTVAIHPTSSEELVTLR
Conditions: read-out: IC50 Human GR, GSSG; cited from earlier work.

For series [2], the target named is TGR (Schistosoma mansoni, UniProt Q962Y6). Kind of series: TrxR and GR activities of TGR in homogenates of treated worms. The settings on record: after 1 h of treatment with 10 μM AF, compared to control worms. The class given is cell-based. How it is done:
AF was dissolved in DMSO and added to freshly perfused worms in DMEM to 10 μM. Control worms were treated with equal amounts of carrier. Worms were subsequently observed for unpairing, motility, and mortality, and were collected at the indicated time intervals for analysis. Worms were homogenized by sonication in PBS and homogenates were assayed for TrxR and GR activities as described above. […] Each assay was done in triplicate and each experiment was done three times.

Series [3] addresses T2, S. mansoni TGR (Schistosoma mansoni, UniProt Q962Y6).
T2 sequence (Q962Y6 1-598): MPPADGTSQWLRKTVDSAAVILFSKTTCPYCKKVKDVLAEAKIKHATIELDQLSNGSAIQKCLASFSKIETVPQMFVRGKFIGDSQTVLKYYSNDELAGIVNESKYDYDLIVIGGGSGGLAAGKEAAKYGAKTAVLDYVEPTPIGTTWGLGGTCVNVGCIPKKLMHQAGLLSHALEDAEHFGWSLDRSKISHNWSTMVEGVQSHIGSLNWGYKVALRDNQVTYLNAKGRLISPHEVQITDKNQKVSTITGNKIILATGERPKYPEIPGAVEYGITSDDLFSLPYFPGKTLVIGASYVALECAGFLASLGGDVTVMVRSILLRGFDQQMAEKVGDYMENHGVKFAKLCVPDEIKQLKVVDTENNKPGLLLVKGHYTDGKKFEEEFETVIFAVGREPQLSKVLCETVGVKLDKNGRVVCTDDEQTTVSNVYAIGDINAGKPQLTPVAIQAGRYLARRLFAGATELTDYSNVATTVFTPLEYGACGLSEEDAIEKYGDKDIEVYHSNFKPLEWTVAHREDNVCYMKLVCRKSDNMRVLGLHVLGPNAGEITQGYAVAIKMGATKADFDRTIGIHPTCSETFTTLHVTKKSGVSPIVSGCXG
The class given is biochemical. Further details: The entire TGR ORF plus the SECIS element was subcloned into pET-24a; made in house; host or cells: Escherichia coli BL21(DE3) with pSUABC. The settings on record: read-out: IC50 S. mansoni TGR, GSSG (GR activity); 100 μM GSSG, 15 min preincubation with 100 μM NADPH.
Method: Assays were performed at 25 °C in 0.1 M potassium phosphate (pH 7.4), 10 mM EDTA using 100 μM NADPH unless otherwise stated.
Initial inhibitor screens were conducted in 200 μl volumes in 96 well plates with 50 μM inhibitor, 100 μM NADPH, and 5 nM TGR in 0.1 M potassium phosphate (pH 7.4), 10 mM EDTA with a preincubation step of 15 min. […] All assays were done in triplicate.

Series [4] relates to lactate dehydrogenase (LDH). Kind of series: LDH activity in homogenates of treated worms. The series is classed as cell-based, Schistosoma mansoni. Conditions: 10 μM AF.
The nature of series [5]: Tolerability of AF dosage in mice. The series is classed as in vivo. The settings on record: 6 mg/kg twice daily for 9 d. The procedure: (§1) Mice (14-wk-old females; C57BL/6 in experiment 1, NIH-Swiss in experiment 2) infected with 60 S. mansoni cercariae were injected intraperitoneally with 6 mg/kg of AF twice daily for 9 d, beginning 7 wk post infection. Infected control mice were injected with equal amounts of carrier. Mice were perfused 1 wk after the final dose of AF and worm burdens were determined.

In series [6] the test system is schistosomula and juvenile liver stage parasites. Kind of series: Survival of larval and juvenile parasites in culture with AF. The class given is cell-based, Schistosoma mansoni. Conditions: AF at concentrations as low as 5 μM. From the text: Percutaneous infection of outbred mice (NIH Swiss or Swiss-Webster) with S. mansoni cercariae (NMRI strain) obtained from infected Biomphalaria glabrata snails, perfusion of adult worms (6–7 wk) and juvenile worms (23 d) and preparation of schistosomula from cercariae were as described. This study was approved by the Institutional Animal Care and Use Committee of Illinois State University (08–2002; Department of Health and Human Services animal welfare assurance number A3762–01).
Figure 6 Survival of Schistosomula, Adult Worms, and Myeloma Cells in the Presence of Auranofin or Potassium Antimonyl Tartrate (A) Cultured schistosomula treated with 0 μM AF (dashed line); AF 0.5 μM (♦); 1 μM (*); 2 μM (x); 5 μM (▴); 10 μM. (B) Survival of adult Schistosoma mansoni worms at 24 h (dashed line), myeloma cells at 24 h; and myeloma cells at 5 d (♦) at given concentrations of AF. (C) As in (B) in the presence of given concentrations of PAT. Each treatment was done in triplicate and each experiment was done three times. Error bars show the standard deviation of the three replicate experiments.

The subject of series [7] is schistosomula. Kind of series: Schistosomula survival after RNAi and/or drug treatment. The class given is cell-based, Schistosoma mansoni. Conditions: AF at 2 μM; TGR dsRNA.
Method: Cercariae were mechanically transformed to schistosomula by vortexing, and bodies were separated from tails by Percoll gradient centrifugation as described [13]. Immediately after transformation, TGR dsRNA or irrelevant dsRNA (each at 54 μg/ml) was added to ~500 schistosomula in 50 μl water followed by incubation at 37 °C for 30 min. After addition of 250 μl of RPMI-1640 medium, 300 U/ml penicillin, and 175 μg/ml streptomycin, parasites were incubated at 37 °C in 5% CO2 atmosphere for 4 d. Reduced O2 tension was obtained by filtering media and purging with 95% N2, 5% CO2 for 20 min before use. Parasites were cultured during the course of the experiment in the appropriate gaseous mix at 37 °C in a sealed modular incubator chamber (Billups-Rothenberg, http://www.brincubator.com) flushed with the same gaseous mix. On day 2 of the experiment, 50 μl of fresh media was added. Schistosomula were assessed daily for viability by microscopy. For each time point at least 1,500 parasites were scored as alive or dead in each experiment (three replicates of 500 each), and each experiment was repeated three times.
(B) Parasites were cultured in the presence of double-stranded TGR RNA (dashed lines) or of double-stranded irrelevant RNA (solid lines) in 20% O2 (♦) or 0% O2 (). […] (C) Combination of RNAi and drug treatments. Solid lines are irrelevant dsRNA treatments and dashed lines are dsTGR treatments; no additions (♦), 2 μM praziquantel () and 2 μM AF (▴). […] In each experiment for each time point at least 1,500 parasites were scored as alive or dead (three replicates of 500 parasites). The error bars represent the standard deviations of three independent experiments.
The test system of series [8] is S. mansoni. Kind of series: Inhibitor studies on infected mice (worm burden). The series is classed as in vivo, Schistosoma mansoni. Conditions: for Total Worm Burden, Number of Worms, Mean ± SD / Total Worm Burden Reduction: 6 mg/kg twice daily for 9 d; for Total Worm Burden, Number of Worms, Mean ± SD: intraperitoneally; for Total Worm Burden Reduction: versus control, 6 mg/kg. How it is done: as §1

Series [9] concerns GSH peroxidase (GPx). Kind of series: GPx activity in homogenates of treated worms. The class given is cell-based, Schistosoma mansoni. Conditions: 10 μM AF.
Series [10] has as its system adult Schistosoma mansoni worms. The series is described as follows: Inhibitor studies on cultured adult worms (unpairing, mortality). The class given is cell-based. How it is done: […] Control worms were treated with equal amounts of carrier. Worms were subsequently observed for unpairing, motility, and mortality, and were collected at the indicated time intervals for analysis. Worms were homogenized by sonication in PBS and homogenates were assayed for TrxR and GR activities as described above. […] Each assay was done in triplicate and each experiment was done three times.

Each structure is given as a SMILES string. Values joined by “and” are separate entries in the source; they are usually repeats but may differ in a detail not shown here. Equal values may be shown once. “Also recorded” adds a separate entry of the source.

Regarding `CC(=O)OC[C@H]1O[C@@H]([S-])[C@H](OC(C)=O)[C@@H](OC(C)=O)[C@@H]1OC(C)=O.CCP(CC)CC.[Au+]` [AF, auranofin], in [1], the IC50 (as a rule, the point on the concentration scale where inhibition reaches its midpoint) is 40 µM. In [2], the “Inhibition of GR activity of TGR in worm homogenates” value is given as about 100% and the “Inhibition of TrxR activity of TGR in worm homogenates” value is about 100%. The IC50 in [3] worked out at 0.009 µM. Further, the “LDH activity in worm homogenates” value in [4] is given as “no significant deviation from controls”. In addition, in series [5], the Tolerability in mice result is recorded as “well tolerated”. In addition, in series [6], the “Time to kill larval, skin stage and juvenile liver stage parasites” value was “less than 10 h”. In series [7], the “Schistosomula survival after 1 d” value is on record as 93.7% and the “Schistosomula survival after 2 d” value is 66.1%. Moreover, the “Total Worm Burden, Number of Worms, Mean ± SD” value in series [8] (C57BL/6 mice) came to 12 ± 7.8. Further, the “Total Worm Burden Reduction” value in series [8] (C57BL/6 mice, p < 0.015) is 59% and 59^a %. Besides, in series [8] (NIH-Swiss mice), the “Total Worm Burden, Number of Worms, Mean ± SD” value amounted to 8.6 ± 1.7. Besides, in series [8] (NIH-Swiss mice, p < 0.001), the “Total Worm Burden Reduction” value was 63% and 63^b %. Moreover, the “Worm burden reductions in infected mice” value in series [8] (summary value of abstract) was 60% and ~ 60%. Besides, the “GPx activity in worm homogenates” value in [9] is “no significant deviation from controls; also recorded: not inhibited”. Further, the “Time to adult worm death” value in series [10] (5 μM AF) is reported as 24 h. In series [10] (10 μM AF), the “Mortality of adult worms after 6 h” value is on record as 83%; the “Mortality of adult worms after 9 h” value stood at 100%; the “Time to unpairing of male and female worms” value turned out to be 1 h. The “Concentration able to kill parasites rapidly in culture” value in series [10] (physiological concentration, abstract) was found to be 5 µM.

These data come from publication PMC1892040 (PLoS Medicine, 2007).
